Tests used:
PPARγ = biological target: T1, PPARγ (Homo sapiens, UniProt P37231); assay: PPARγ PPRE-Luc reporter gene assay in CHO cells; assay type: cell-based; conditions: 50 μM
T1 construct: expressed in transfected cells; host or cells: CHO cells
T1 sequence (P37231 1-505): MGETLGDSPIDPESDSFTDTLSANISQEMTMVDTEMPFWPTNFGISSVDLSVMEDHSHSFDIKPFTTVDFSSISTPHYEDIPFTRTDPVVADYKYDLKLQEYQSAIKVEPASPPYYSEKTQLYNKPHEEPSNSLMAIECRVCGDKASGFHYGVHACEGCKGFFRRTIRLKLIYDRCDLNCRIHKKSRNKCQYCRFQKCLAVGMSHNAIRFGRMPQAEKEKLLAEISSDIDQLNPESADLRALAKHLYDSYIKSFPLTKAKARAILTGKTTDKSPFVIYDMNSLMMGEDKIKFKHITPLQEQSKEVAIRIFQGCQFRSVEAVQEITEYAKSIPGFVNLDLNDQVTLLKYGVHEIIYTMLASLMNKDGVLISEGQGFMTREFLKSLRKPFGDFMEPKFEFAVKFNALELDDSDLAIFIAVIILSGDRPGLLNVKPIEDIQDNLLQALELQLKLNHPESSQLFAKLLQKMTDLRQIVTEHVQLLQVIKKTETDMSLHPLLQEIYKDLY
Text: Glucose uptake is regulated by three major mechanisms. First, through the activation of the Akt pathway, which promotes GLUT4 translocation via the activation of the signaling cascade involving the insulin receptor substrate (IRS) family and PI3 kinase through […] or G-protein-coupled receptors (GPCRs); second, through the upregulation of AMPK phosphorylation, which increases glucose uptake by inducing GLUT4 translocation to the plasma membrane; third, through the promotion of GLUT4 expression by PPARγ ligands. […] However, these compounds may induce GLUT4 expression and improve insulin sensitivity in the treated cells through their interactions with GPCR and/or PPARγ. Among GPCRs highly expressed in 3T3-L1 adipocytes and C2C12 muscle cells, GPR120 is the receptor that is most closely associated with glucose uptake. […] This was performed following a previously described method. In brief, CHO cells were plated to 96-well white plates (REF3610, Corning Life Sciences, NY, USA) in DMEM (HyClone^TM, Cytivalifescience, Seoul, Korea) supplemented with 10% FBS and 1% penicillin at a density of 1.5 × 10^4 cells/well. […] After incubation for another 24 h, luciferase activity was measured using the dual-luciferase assay system (Promega Korea, Seoul, Korea) according to the manufacturer’s instructions. […]

[1] = test system: Akt phosphorylation in PA-induced insulin-resistant C2C12 cells; assay: Palmitic acid-induced insulin resistance in C2C12 myotubes (p-Akt); assay type: cell-based, mouse; conditions: PA (250 µM, 16 h)-treated C2C12, 5 μM compound for 30 min with 100 nM insulin
Protocol: Since insulin plays an important role in regulating glucose metabolism through the redistribution of GLUT4 from intracellular vesicles to the cell surface, it is important to describe the interaction between 1e and insulin in the Akt pathway. […] Next, we evaluated the protective effects of 1e against PA-induced insulin resistance in C2C12 myotubes. To generate an insulin resistance model, C2C12 myotubes were treated with 250 µM PA in a serum-free medium for 16 h. Akt phosphorylation levels in PA-treated C2C12 cells decreased by 50% compared to levels in normal C2C12 cells (Figure 6C). Furthermore, in the presence of insulin and GA, Akt phosphorylation levels decreased only by 30% compared to levels in normal cells. […] In addition, the GA analogs induced no cytotoxic effects in C2C12 muscle cells (data not shown). […] The expression levels of glucose uptake-related proteins were determined via Western blotting, as previously described. In brief, differentiated 3T3-L1 cells were plated in six-well plates at a 1.5 × 10^4 cells/well density in a final volume of 2 mL. […] Secondary antibodies were added to the membranes at a concentration of 1:2000 for 1 h at room temperature, and immunoreactive bands were detected via ECL (GE Healthcare Korea Co., Ltd., Incheon, Korea). […]

SMILES	PPARγ transcriptional activity (PPRE-Luc) (PPARγ)	Akt phosphorylation in PA-induced insulin-resistant C2C12 cells [1]
CCCCCCCCCCCCCCCOc1cccc(O)c1C(=O)O [Compound 1f]	No significant change	–
CCCCCCCCCCCCCOc1cccc(O)c1C(=O)O [Compound 1e]	No significant change	restoring it to levels similar to those in the non-insulin-resistant group
